{"source": "patent US10351548B2", "about": "“2-oxo-1,2-dihydropyridine-3-carboxamide compounds and their use as inhibitors of PDK1” (INTERNATIONAL SOCIETY FOR DRUG DEVELOPMENT S.R.L., priority 2015, dated 2019)", "key": {"[1]": {"biological_target": "CDK5/p35 (Homo sapiens (Human), UniProt Q00535)", "sequence (Q00535 whole entry)": "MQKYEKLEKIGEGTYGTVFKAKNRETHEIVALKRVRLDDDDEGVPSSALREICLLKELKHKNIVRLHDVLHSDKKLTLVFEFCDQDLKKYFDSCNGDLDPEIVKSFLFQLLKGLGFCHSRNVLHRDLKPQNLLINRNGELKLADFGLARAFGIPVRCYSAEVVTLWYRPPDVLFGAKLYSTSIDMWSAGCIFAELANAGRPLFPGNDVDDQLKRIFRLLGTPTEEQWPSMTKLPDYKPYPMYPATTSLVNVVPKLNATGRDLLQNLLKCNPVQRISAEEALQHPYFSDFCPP", "sequence (Q15078 whole entry partner)": "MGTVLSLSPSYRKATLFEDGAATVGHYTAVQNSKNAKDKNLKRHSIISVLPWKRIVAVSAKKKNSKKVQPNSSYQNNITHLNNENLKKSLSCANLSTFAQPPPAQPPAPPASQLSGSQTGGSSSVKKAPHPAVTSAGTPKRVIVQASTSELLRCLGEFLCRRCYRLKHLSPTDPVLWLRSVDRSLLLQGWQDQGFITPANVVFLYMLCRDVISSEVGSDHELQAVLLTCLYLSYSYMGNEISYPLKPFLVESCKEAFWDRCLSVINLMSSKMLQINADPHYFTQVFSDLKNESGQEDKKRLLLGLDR", "assay": "IB35 kinases profiling at 100 nM (ZLYTE)", "type": "biochemical", "conditions": "IB35 100 nM, ATP Km app", "excerpt": "(§1) The results are reported below"}, "[2]": {"biological_target": "CDK1/cyclin B (Homo sapiens (Human), UniProt P06493)", "sequence (P06493 whole entry)": "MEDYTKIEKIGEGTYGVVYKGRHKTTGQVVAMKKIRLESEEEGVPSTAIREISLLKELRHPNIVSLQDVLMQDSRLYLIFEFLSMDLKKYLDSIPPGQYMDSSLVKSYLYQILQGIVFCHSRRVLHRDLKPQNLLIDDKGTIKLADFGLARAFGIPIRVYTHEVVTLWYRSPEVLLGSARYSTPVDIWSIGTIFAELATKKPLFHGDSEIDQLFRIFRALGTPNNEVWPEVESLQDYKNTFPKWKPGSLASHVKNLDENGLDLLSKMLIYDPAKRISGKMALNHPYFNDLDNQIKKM", "sequence (P14635 whole entry partner)": "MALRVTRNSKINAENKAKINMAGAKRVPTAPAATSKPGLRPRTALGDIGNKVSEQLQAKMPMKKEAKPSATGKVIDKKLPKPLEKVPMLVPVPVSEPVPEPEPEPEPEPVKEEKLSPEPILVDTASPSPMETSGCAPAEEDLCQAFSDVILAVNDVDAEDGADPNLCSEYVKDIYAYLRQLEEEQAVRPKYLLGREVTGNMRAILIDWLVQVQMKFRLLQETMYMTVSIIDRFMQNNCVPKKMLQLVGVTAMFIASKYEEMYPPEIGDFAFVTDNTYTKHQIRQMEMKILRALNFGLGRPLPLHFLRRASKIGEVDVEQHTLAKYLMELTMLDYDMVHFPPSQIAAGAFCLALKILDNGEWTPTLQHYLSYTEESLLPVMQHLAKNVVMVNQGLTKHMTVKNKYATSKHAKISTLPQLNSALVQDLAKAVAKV", "assay": "IB35 kinases profiling at 100 nM (ZLYTE)", "type": "biochemical", "conditions": "IB35 100 nM, ATP Km app", "excerpt": "as §1"}, "[3]": {"biological_target": "GSK3A (GSK3 alpha) (Homo sapiens (Human), UniProt P49840)", "sequence (P49840 whole entry, species assumed)": "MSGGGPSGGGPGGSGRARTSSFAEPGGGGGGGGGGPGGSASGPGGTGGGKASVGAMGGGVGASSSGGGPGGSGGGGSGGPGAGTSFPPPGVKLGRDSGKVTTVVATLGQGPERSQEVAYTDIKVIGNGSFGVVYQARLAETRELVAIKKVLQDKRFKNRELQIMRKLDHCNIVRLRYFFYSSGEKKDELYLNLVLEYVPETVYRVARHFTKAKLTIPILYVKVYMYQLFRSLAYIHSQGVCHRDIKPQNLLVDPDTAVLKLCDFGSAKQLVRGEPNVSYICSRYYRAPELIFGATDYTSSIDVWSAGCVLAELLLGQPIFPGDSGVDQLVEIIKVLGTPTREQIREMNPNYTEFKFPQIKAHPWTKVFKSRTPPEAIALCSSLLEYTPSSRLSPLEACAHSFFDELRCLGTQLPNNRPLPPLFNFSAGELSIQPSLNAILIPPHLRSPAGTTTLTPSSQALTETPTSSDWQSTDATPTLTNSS", "assay": "IB35 kinases profiling at 100 nM (ZLYTE)", "type": "biochemical", "conditions": "IB35 100 nM, ATP Km app", "excerpt": "as §1"}, "[4]": {"biological_target": "CSNK1A1 (CK1 alpha 1) (Homo sapiens (Human), UniProt P48729)", "sequence (P48729 whole entry, species assumed)": "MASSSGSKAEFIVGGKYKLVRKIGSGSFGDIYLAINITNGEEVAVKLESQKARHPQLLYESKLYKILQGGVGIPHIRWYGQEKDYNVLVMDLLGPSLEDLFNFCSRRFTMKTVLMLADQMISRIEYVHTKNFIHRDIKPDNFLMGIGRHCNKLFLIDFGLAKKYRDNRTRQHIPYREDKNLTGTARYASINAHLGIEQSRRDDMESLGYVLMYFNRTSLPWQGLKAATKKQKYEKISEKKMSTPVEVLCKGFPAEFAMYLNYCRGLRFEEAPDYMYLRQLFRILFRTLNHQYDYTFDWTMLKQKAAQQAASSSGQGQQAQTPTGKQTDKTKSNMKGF", "assay": "IB35 kinases profiling at 100 nM (ZLYTE)", "type": "biochemical", "conditions": "IB35 100 nM, ATP Km app", "excerpt": "as §1"}, "[5]": {"biological_target": "CSNK1G1 (CK1 gamma 1) (Homo sapiens (Human), UniProt Q9HCP0)", "sequence (Q9HCP0 whole entry, species assumed)": "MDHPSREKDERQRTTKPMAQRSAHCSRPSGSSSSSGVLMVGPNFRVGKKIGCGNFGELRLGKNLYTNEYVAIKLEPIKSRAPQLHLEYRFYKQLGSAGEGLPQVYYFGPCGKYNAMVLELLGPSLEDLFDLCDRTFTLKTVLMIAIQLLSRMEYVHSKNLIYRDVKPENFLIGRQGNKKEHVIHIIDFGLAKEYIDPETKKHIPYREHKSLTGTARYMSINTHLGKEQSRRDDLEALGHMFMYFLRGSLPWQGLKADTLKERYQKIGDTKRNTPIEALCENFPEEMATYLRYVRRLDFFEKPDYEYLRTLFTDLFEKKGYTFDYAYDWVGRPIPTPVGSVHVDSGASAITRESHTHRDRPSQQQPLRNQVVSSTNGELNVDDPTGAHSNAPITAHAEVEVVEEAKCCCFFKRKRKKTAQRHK", "assay": "IB35 kinases profiling at 100 nM (ZLYTE)", "type": "biochemical", "conditions": "IB35 100 nM, ATP Km app", "excerpt": "as §1"}, "[6]": {"biological_target": "MAPK8 (JNK1) (Homo sapiens (Human), UniProt P45983)", "sequence (P45983 whole entry, species assumed)": "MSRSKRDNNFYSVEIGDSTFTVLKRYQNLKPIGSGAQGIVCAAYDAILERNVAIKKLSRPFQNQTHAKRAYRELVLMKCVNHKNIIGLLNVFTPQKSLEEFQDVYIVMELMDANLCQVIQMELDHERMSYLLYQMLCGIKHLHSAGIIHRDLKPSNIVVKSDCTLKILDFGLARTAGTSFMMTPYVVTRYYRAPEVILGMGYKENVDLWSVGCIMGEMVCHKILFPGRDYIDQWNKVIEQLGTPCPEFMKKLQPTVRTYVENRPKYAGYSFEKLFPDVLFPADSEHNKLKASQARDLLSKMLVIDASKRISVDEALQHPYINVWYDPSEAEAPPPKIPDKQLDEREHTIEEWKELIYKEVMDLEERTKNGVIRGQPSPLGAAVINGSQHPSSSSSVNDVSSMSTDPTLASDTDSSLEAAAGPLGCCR", "assay": "IB35 kinases profiling at 100 nM (ZLYTE)", "type": "biochemical", "conditions": "IB35 100 nM, ATP 100", "excerpt": "as §1"}, "[7]": {"biological_target": "SRC (Homo sapiens (Human), UniProt P12931)", "sequence (P12931 whole entry, looked up, species assumed)": "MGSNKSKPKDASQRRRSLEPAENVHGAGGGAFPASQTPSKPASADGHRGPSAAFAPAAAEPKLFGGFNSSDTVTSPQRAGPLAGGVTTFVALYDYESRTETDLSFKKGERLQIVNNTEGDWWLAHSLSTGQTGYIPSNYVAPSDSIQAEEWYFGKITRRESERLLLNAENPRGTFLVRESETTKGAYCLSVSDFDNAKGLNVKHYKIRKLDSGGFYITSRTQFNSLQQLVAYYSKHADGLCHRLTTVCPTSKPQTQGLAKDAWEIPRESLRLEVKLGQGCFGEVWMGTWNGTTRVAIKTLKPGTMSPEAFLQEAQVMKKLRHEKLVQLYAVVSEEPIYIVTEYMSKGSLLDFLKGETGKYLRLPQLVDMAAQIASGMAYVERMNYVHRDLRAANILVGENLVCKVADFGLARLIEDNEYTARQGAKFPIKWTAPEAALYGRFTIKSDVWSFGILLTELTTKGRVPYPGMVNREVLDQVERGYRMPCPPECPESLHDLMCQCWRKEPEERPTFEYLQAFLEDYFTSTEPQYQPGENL", "assay": "IB35 kinases profiling at 100 nM (ZLYTE)", "type": "biochemical", "conditions": "IB35 100 nM, ATP Km app", "excerpt": "as §1"}, "[8]": {"biological_target": "CDK2/cyclin A (Homo sapiens (Human), UniProt P24941)", "assay": "IB35 kinases profiling at 100 nM (ZLYTE)", "type": "biochemical", "conditions": "IB35 100 nM, ATP Km app", "excerpt": "as §1"}, "[9]": {"biological_target": "BTK (Homo sapiens (Human), UniProt Q06187)", "sequence (Q06187 whole entry)": "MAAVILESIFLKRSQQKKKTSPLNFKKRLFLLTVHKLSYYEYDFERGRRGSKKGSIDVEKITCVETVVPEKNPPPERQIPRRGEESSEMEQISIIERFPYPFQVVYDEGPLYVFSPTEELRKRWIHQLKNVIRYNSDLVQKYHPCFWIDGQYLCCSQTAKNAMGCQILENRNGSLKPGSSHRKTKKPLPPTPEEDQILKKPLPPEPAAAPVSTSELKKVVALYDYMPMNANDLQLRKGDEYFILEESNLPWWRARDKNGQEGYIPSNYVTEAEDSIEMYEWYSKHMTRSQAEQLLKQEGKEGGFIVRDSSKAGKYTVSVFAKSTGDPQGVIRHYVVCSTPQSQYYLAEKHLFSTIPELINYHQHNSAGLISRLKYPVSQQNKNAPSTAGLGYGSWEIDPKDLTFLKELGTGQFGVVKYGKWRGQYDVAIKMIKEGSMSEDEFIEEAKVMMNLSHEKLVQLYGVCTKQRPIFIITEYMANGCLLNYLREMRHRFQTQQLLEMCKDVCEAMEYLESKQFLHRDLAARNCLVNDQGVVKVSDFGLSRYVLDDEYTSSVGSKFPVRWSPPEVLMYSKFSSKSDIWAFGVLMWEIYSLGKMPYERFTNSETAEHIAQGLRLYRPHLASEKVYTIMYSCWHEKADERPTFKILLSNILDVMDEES", "assay": "IB35 kinases profiling at 100 nM (ZLYTE)", "type": "biochemical", "conditions": "IB35 100 nM, ATP Km app", "excerpt": "as §1"}, "[10]": {"biological_target": "IRAK4 (Homo sapiens (Human), UniProt Q9NWZ3)", "sequence (Q9NWZ3 whole entry, species assumed)": "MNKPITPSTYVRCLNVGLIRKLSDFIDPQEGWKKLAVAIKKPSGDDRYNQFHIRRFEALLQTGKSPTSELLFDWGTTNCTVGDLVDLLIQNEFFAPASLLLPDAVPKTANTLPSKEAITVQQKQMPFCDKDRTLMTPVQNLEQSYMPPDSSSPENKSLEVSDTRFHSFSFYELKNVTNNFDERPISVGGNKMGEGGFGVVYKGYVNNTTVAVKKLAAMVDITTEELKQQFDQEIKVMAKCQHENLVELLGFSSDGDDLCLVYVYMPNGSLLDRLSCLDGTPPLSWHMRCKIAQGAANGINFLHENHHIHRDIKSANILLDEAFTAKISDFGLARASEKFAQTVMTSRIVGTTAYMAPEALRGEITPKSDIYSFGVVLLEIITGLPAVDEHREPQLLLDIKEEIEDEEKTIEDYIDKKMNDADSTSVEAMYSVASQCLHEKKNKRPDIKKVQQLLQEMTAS", "assay": "IB35 kinases profiling at 100 nM (ZLYTE)", "type": "biochemical", "conditions": "IB35 100 nM, ATP Km app", "excerpt": "as §1"}, "[11]": {"test_system": "U87MG cells", "assay": "U87MG cell proliferation, MTS assay", "type": "cell-based, human", "conditions": "for IC50: Homo sapiens, U-87 MG, 72 h, MTS assay", "procedure": "(§2) The U87MG cell line was obtained from the National Institute for Cancer Research of Genoa (Italy) and cultured in DMEM 10% FBS and 2 mM glutamine. To isolate GSCs, approximately 2.0×10^6 cells were suspended in 1 mL of a defined serum-free Neural Stem Cell (NSC) medium (Daniele, S., et al., Modulation of A1 and A2B adenosine receptor activity: a new strategy to sensitise glioblastoma stem cells to chemotherapy. Cell death & disease, 2014. 5(11): p. e1539). After 3-4 days of culture, the neurospheres were collected, suspended in NSC medium, dissociated into single cells, and plated for the assays. For the long-term treatment of cells, NSC or complete medium containing drugs was replaced every two to three days.\n(§3) The human U87MG cells or GSCs were seeded at a density of 3×10^3 cells/well. After 24 h, the cells were treated from one to seven days with fresh growth medium containing different concentrations of SA16, SA23 or IB35. Following the treatment period, cell proliferation was determined using the MTS assay according to manufacturer's instruction. The absorbance of formazan at […] was measured in a colorimetric assay with an automated plate reader (Victor Wallac 2, Perkin Elmer). The results were calculated by subtracting the mean background from the values obtained from each evaluation and were expressed as the percentage of the control (untreated cells). Sigmoid dose-response curve was generated, from which the IC50 values were derived.\nAs representative GBM cell line, the above U87MG cells were used; this human cell line resulted an appropriate model to study the effects of PDK1 inhibition, because it is deficient for the tumour suppressor phosphatase and tensin homologue (PTEN), a negative regulator of the PI3K/AKT pathway (Wang, S. I., et al., Somatic mutations of PTEN in glioblastoma multiforme. Cancer research, 1997. 57(19): p. 4183-4186). To examine the effects of SA16, SA23 and IB35 on GBM cell growth/survival, U87MG cells were incubated with different concentrations of the new compounds (1 nM-10 μM) for 24 and 72 h. Specifically, U87MG cells were treated in complete medium with different concentrations of SA16, SA23 or IB35 (1 nM-10 μM) for 24 h (A) or 72 h (B). At the end of treatment, cell proliferation was measured using the MTS assay. The data are expressed as a percentage with respect to that of untreated cells (control), which was set to 100%, and are the mean values±SEM of three independent experiments, each performed in duplicate. The significance of the differences reported in FIGS. 1 and 2 was determined with a one-way ANOVA with Bonferroni post-test (* p<0.05, **p<0.01, *** p<0.001 vs. control cells)."}, "[12]": {"test_system": "GSCs isolated from U87MG cells", "assay": "GSC proliferation, MTS assay", "type": "cell-based, human", "conditions": "for IC50: Homo sapiens, U-87 MG, 168 h, seven days of treatment, MTS assay; for inhibition of GSC proliferation: starting from four days of treatment", "procedure": "as §2, §3\nThe inhibition of PDK1 has been reported as potentially effective therapeutic approach to reduce self-renewal and propagation of GSCs (Signore, M., et al., Combined PDK1 and CHK1 inhibition is required to kill glioblastoma stem-like cells in vitro and in vivo. Cell death & disease, 2014. 5(5): p. e1223). On this basis, the effects of SA16, SA23 and IB35 on GSCs, isolated from U87MG cells as previously reported, were evaluated (Daniele, S., et al., Modulation of A1 and A28 adenosine receptor activity: a new strategy to sensitise glioblastoma stem cells to chemotherapy. Cell death & disease, 2014. 5(11): p. e1539). U87MG-derived GSCs were incubated with the indicated concentrations of IB35, SA23 or SA16 for four days (FIG. 8) or seven days (FIG. 9). At the end of the treatment periods, cell proliferation was measured using the MTS assay. The data were expressed as a percentage with respect to that of untreated cells (control), which was set to 100%, and are the mean values±SEM of three independent experiments, each performed in duplicate. IC50 values after seven days of treatment were calculated from sigmoid dose-response curve (FIG. 9). The significance of the differences was determined with a one-way ANOVA with Bonferroni post-test (** p<0.01, *** p<0.001 vs. control)."}}, "note": "Read-outs that look alike come from different tables or passages of the source."}
{"smiles": "O=C(CNC(=O)c1cccn(Cc2ccc(F)c(F)c2)c1=O)Nc1ccc2c(c1)/C(=C/c1cnc[nH]1)C(=O)N2", "note": "[IB35, (Z)—N-(2-((3-((1H-imidazol-5-yl)methylene)-2-oxoindolin-5-yl)amino)-2-oxoethyl)-1-(3,4-difluorobenzyl)-2-oxo-1,2-dihydro pyridine-3-carboxamide]", "values": [{"measurement": "inhibition at 0.1 µM", "setting": "[1]; read-out: % Inhibition 1", "value": -2, "unit": "%"}, {"measurement": "inhibition at 0.1 µM", "setting": "[1]; read-out: % Inhibition 2", "value": 6, "unit": "%"}, {"measurement": "inhibition at 0.1 µM", "setting": "[1]; read-out: % Inhibition Avg", "value": 2, "unit": "%"}, {"measurement": "inhibition at 0.1 µM", "setting": "[2]; read-out: % Inhibition 1", "value": 10, "unit": "%"}, {"measurement": "inhibition at 0.1 µM", "setting": "[2]; read-out: % Inhibition 2", "value": 3, "unit": "%"}, {"measurement": "inhibition at 0.1 µM", "setting": "[2]; read-out: % Inhibition Avg", "value": 6, "unit": "%"}, {"measurement": "inhibition at 0.1 µM", "setting": "[3]; read-out: % Inhibition 1", "value": 43, "unit": "%"}, {"measurement": "inhibition at 0.1 µM", "setting": "[3]; read-out: % Inhibition 2", "value": 43, "unit": "%"}, {"measurement": "inhibition at 0.1 µM", "setting": "[3]; read-out: % Inhibition Avg", "value": 43, "unit": "%"}, {"measurement": "inhibition at 0.1 µM", "setting": "[4]; read-out: % Inhibition 1", "value": -3, "unit": "%"}, {"measurement": "inhibition at 0.1 µM", "setting": "[4]; read-out: % Inhibition 2", "value": -2, "unit": "%"}, {"measurement": "inhibition at 0.1 µM", "setting": "[4]; read-out: % Inhibition Avg", "value": -2, "unit": "%"}, {"measurement": "inhibition at 0.1 µM", "setting": "[5]; read-out: % Inhibition 1", "value": 3, "unit": "%"}, {"measurement": "inhibition at 0.1 µM", "setting": "[5]; read-out: % Inhibition 2", "value": 2, "unit": "%"}, {"measurement": "inhibition at 0.1 µM", "setting": "[5]; read-out: % Inhibition Avg", "value": 3, "unit": "%"}, {"measurement": "inhibition at 0.1 µM", "setting": "[6]; read-out: % Inhibition 1", "value": 4, "unit": "%"}, {"measurement": "inhibition at 0.1 µM", "setting": "[6]; read-out: % Inhibition 2", "value": 21, "unit": "%"}, {"measurement": "inhibition at 0.1 µM", "setting": "[6]; read-out: % Inhibition Avg", "value": 12, "unit": "%"}, {"measurement": "inhibition at 0.1 µM", "setting": "[7]; read-out: % Inhibition 1", "value": 8, "unit": "%"}, {"measurement": "inhibition at 0.1 µM", "setting": "[7]; read-out: % Inhibition 2", "value": 6, "unit": "%"}, {"measurement": "inhibition at 0.1 µM", "setting": "[7]; read-out: % Inhibition Avg", "value": 7, "unit": "%"}, {"measurement": "inhibition at 0.1 µM", "setting": "[8]; read-out: % Inhibition 1", "value": -1, "unit": "%"}, {"measurement": "inhibition at 0.1 µM", "setting": "[8]; read-out: % Inhibition 2", "value": 8, "unit": "%"}, {"measurement": "inhibition at 0.1 µM", "setting": "[8]; read-out: % Inhibition Avg", "value": 4, "unit": "%"}, {"measurement": "inhibition at 0.1 µM", "setting": "[9]; read-out: % Inhibition 1", "value": -4, "unit": "%"}, {"measurement": "inhibition at 0.1 µM", "setting": "[9]; read-out: % Inhibition 2", "value": -2, "unit": "%"}, {"measurement": "inhibition at 0.1 µM", "setting": "[9]; read-out: % Inhibition Avg", "value": -3, "unit": "%"}, {"measurement": "inhibition at 0.1 µM", "setting": "[10]; read-out: % Inhibition 1", "value": 3, "unit": "%"}, {"measurement": "inhibition at 0.1 µM", "setting": "[10]; read-out: % Inhibition 2", "value": -14, "unit": "%"}, {"measurement": "inhibition at 0.1 µM", "setting": "[10]; read-out: % Inhibition Avg", "value": -6, "unit": "%"}, {"measurement": "inhibition of U87MG cell proliferation", "setting": "[11]; 24 h, higher effect observed (1 nM-10 μM tested)", "value": 41, "unit": "%"}, {"measurement": "IC50", "setting": "[11]; read-out: IC50 U87MG", "value": "450 ± 46.2", "unit": "nM"}, {"measurement": "IC50", "setting": "[12]", "value": "3.36 ± 0.4", "unit": "nM"}, {"measurement": "inhibition of GSC proliferation", "setting": "[12]", "value": "significant inhibition"}]}
{"smiles": "O=C1Nc2ccc(NC(=O)[C@H](NC(=O)c3cccn(Cc4ccc(F)c(F)c4)c3=O)c3ccccc3)cc2/C1=C/c1ncc[nH]1", "note": "[SA23, (Z)—(R)—N-(2-((3-((1H-imidazol-2-yl)methylene)-2-oxoindolin-5-yl)amino)-2-oxo-1-phenylethyl)-1-(3,4-difluorobenzyl)-2-oxo-1,2-dihydropyridine-3-carboxamide]", "values": [{"measurement": "IC50", "setting": "[11]; read-out: IC50 U87MG", "value": "1170 ± 100", "unit": "nM"}, {"measurement": "IC50", "setting": "[11]; read-out: IC50 U87MG cell proliferation", "value": "1170 ± 100", "unit": "nM"}, {"measurement": "IC50", "setting": "[12]", "value": "0.3 ± 0.04", "unit": "nM"}, {"measurement": "inhibition of GSC proliferation", "setting": "[12]", "value": "significant inhibition"}]}
